# From ChEMBL document CHEMBL1123523, “Oxidation of 5-hydroxytryptamine and 5,7-dihydroxytryptamine. A new oxidation pathway and formation of a novel neurotoxin” (J Med Chem, 1986)
# System: Mus musculus
# Experiment: Compound was tested for neurotoxic property after intracranial administration in mice
# Type: ADME, organism-based
# Settings: in vivo, other
row,SMILES,LD50 [µg]
1,NCCc1cc(O)c(O)cc1O [OXIDOPAMINE],80
2,NCCc1cc(O)c(O)cc1N,50
3,CC(N)Cc1cc(O)c(O)cc1N (stereo unspecified),45
4,NCCc1c[nH]c2c(O)cc(O)cc12,55
5,NCCc1c[nH]c2c1C(=O)C(=O)C=C2O,20

# Species on record: Mus musculus
# Experiment: Compound was tested for lowering the norepinephrine levels in mouse brain expressed as percent of control values
# Type: functional
# Settings: not given
row,SMILES,Activity [%]
1,NCCc1c[nH]c2c1C(=O)C(=O)C=C2O,87
